Test results: patent US12054498B2, “Heteroaromatic macrocyclic ether chemotherapeutic agents” (Nuvalent, Inc., priority 2020, dated 2024)

Key:
ROS1-G2032R = target: T1, ROS1-G2032R (Homo sapiens, UniProt P08922, G2032R); experiment: Biochemical kinase assay, ROS1-G2032R kinase domain; conditions: apparent inhibitory constant, Morrison equation; ATP 2 mM in substrate solution; read-out: ROS1-G2032R Ki^app
T1 construct: purchased SignalChem R14-12BG
Experimental: First, 250 nL of compound dissolved in DMSO (100-fold of the desired concentration) was dispensed into a 384-well plate. A 12.5 μL substrate solution containing ATP (2 mM) and fluorogenic phosphorylation substrate AQT0101 (26 μM for ALK and ROS1, AssayQuant) or AQT0104 (26 μM for TRKA, AssayQuant) in buffer (50 mM HEPES pH 7.5, 0.01% Brij-35, 0.5 mM EGTA, 10 mM MgCl2) was added and mixed thoroughly. […] The plate was sealed and read by SpectraMax Paradigm at λ=485 nm every 2 minutes for 120 minutes at 30° C. Initial rates of reaction (v) were calculated from the change in fluorescence intensity over time during the initial, linear portion of the reaction. Finally, apparent inhibitory constants (Ki^app) were determined from regression of v and I (inhibitor concentration) to Morrison Equation (E=enzyme concentration): […]

[1] = target: T2, Ba/F3 cells EML4-ALK L1196M/G1202R (variant 1) (Homo sapiens, UniProt Q9UM73, G1202R/L1196M); experiment: Ba/F3 cell proliferation assay, EML4-ALK L1196M/G1202R (variant 1); assay type: cell-based; conditions: 72 hours, CellTiter-Glo
T2 construct: echinoderm microtubule-associated protein-like 4 (EML4) gene and the ALK tyrosine kinase domain; host or cells: Ba/F3 (RIKEN), retroviral pMSCV-puro; the other entry of the earlier key: EML4 (Q9HC35, Echinoderm microtubule-associated protein-like 4)
Text: (§1) Genes encoding CD74-ROS1 wild-type (wt), CD74-ROS1 G2032R, CD74-ROS1 S1986F, CD74-ROS1 L2026M, CD74-ROS1 D2033N, EML4-ALK wt (variant 1), EML4-ALK G1202R (variant 1), EML4-ALK L1196M/G1202R (variant 1), EML4-ALK G1202R/G1269A (variant 1), EML4-ALK G1202R/L1198F (variant 1), and TPM3-TRKA were synthesized at GeneRay, cloned into the retroviral construct pMSCV-puro (Biovector), and packaged into retroviral particles. The virus was used to infect Ba/F3 cells (RIKEN) at multiplicity of infection=1 for 1 day. Infected cells were rescued in media (RPMI-1640 with 10% fetal bovine serum and 1% streptomycin and penicillin) supplemented with mouse IL-3 (10 ng/mL) for 2 days, and stable cell lines were selected by IL-3 withdrawal and puromycin (0.8 μg/mL) for 7 days. Monoclones were selected by single-cell dilution in IL-3-free medium containing puromycin (0.8 μg/mL). Transformation of desired genes was confirmed by Sanger sequencing and western blot using the following antibodies: ROS1 (CST #3287), ALK (CST #3633), and pan-TRK (Abcam #76291).
(§2) Cell Proliferation Assay Stable cells were plated at 1,000 cells/well (40 μL) in a 384-well plate for 1 day.
(§3) Test compounds (40 nL) were then added in a 3-fold dilution series using the TECAN EVO200 liquid handler and incubated for 72 hours. Plates were equilibrated at room temperature for 15 minutes followed by addition of 40 μL CellTiter-Glo reagent (Promega).
(§4) Luminescence was measured on a plate reader. Half-maximal inhibitory concentration (IC50) was calculated from percent inhibition and inhibitor concentration using four-parameter logistic regression. […] (nd=not determined).

TRKA-wt = target: T3, TRKA-wt (Homo sapiens, UniProt P04629); experiment: Biochemical kinase assay, TRKA-wt kinase domain; conditions: apparent inhibitory constant, Morrison equation; ATP 2 mM in substrate solution; read-out: TRKA-wt Ki^app
T3 construct: or TRKA-wt (1 nM, BPS Bio, 40280) kinase domains in buffer; purchased BPS Bio 40280
Experimental: (§5) First, 250 nL of compound dissolved in DMSO (100-fold of the desired concentration) was dispensed into a 384-well plate. A 12.5 μL substrate solution containing ATP (2 mM) and fluorogenic phosphorylation substrate AQT0101 (26 μM for ALK and ROS1, AssayQuant) or AQT0104 (26 μM for TRKA, AssayQuant) in buffer (50 mM HEPES pH 7.5, 0.01% Brij-35, 0.5 mM EGTA, 10 mM MgCl2) was added and mixed thoroughly. Then, a 12.5 μL kinase solution containing ALK-wt (1.5 nM, Carna, 08-518), ALK ALK L1196M/G1202R (3 nM, SignalChem, A19-12NG), ROS1-wt (0.6 nM, Carna, 08-163), ROS1-G2032R (0.5 nM, SignalChem, R14-12BG), or TRKA-wt (1 nM, BPS Bio, 40280) kinase domains in buffer ([…] HEPES pH 7.5, 0.01% Brij-35, 2% glycerol, 0.4 mg/mL BSA, 0.5 mM EGTA, and 10 mM MgCl2) was added and mixed thoroughly. The plate was sealed and read by SpectraMax Paradigm at λ=485 nm every 2 minutes for 120 minutes at 30° C. Initial rates of reaction (v) were calculated from the change in fluorescence intensity over time during the initial, linear portion of the reaction. Finally, apparent inhibitory constants (Ki^app) were determined from regression of v and I (inhibitor concentration) to Morrison Equation (E=enzyme concentration): […]

[2] = test system: TPM3-NTRK1-wt IC50 / primary target IC50 (e.g. CD74-ROS1-wt); experiment: TRKA selectivity in Ba/F3 cells (TRKA potency divided by primary target potency); assay type: cell-based; conditions: for TPM3-NTRK1-wt/CD74-ROS1-G2032R selectivity ratio: TRKA potency / CD74-ROS1-G2032R potency; for TPM3-NTRK1-wt/CD74-ROS1-wt selectivity ratio: TRKA potency / CD74-ROS1-wt potency; for TPM3-NTRK1-wt/EML4-ALK-L1196M-G1202R selectivity ratio: TRKA potency / EML4-ALK-L1196M-G1202R potency; for TPM3-NTRK1-wt/EML4-ALK-wt selectivity ratio: TRKA potency / EML4-ALK-wt potency
Experimental: TRKA selectivity was calculated by dividing a compound's TRKA potency by its primary target potency (e.g. TPM3-NTRK1-wt IC50/CD74-ROS1-wt IC50). Compound selectivity can be interpreted by binning ratio values: bin A for very high selectivity, ratio >30-fold; bin B for high selectivity, ratio >10-fold; bin C for moderate selectivity, ratio ≥1; and bin D for low selectivity, ratio <1. […] (nd=not determined).

ALK-wt = target: T4, ALK-wt (Homo sapiens, UniProt Q9UM73); experiment: Biochemical kinase assay, ALK-wt kinase domain; conditions: apparent inhibitory constant, Morrison equation; ATP 2 mM in substrate solution; read-out: ALK-wt Ki^app
T4 construct: purchased Carna 08-518
Experimental: as §5

[3] = target: T5, Ba/F3 cells CD74-ROS1 wild-type (wt) (Homo sapiens, UniProt P08922); experiment: Ba/F3 cell proliferation assay, CD74-ROS1 wild-type; assay type: cell-based; conditions: 72 hours, CellTiter-Glo
T5 construct: fusion of the C-terminus of ROS1 with the N-terminus of various partner proteins; host or cells: Ba/F3 (RIKEN), retroviral pMSCV-puro; the other entry of the earlier key: CD74 (P04233, HLA class II histocompatibility antigen gamma chain)
Experimental: (§6) The virus was used to infect Ba/F3 cells (RIKEN) at multiplicity of infection=1 for 1 day. Infected cells were rescued in media (RPMI-1640 with 10% fetal bovine serum and 1% streptomycin and penicillin) supplemented with mouse IL-3 (10 ng/mL) for 2 days, and stable cell lines were selected by IL-3 withdrawal and puromycin (0.8 μg/mL) for 7 days. Monoclones were selected by single-cell dilution in IL-3-free medium containing puromycin (0.8 μg/mL).
as §2, §3, §4

[4] = target: T6, Ba/F3 cells EML4-ALK wt (variant 1) (Homo sapiens, UniProt Q9UM73); experiment: Ba/F3 cell proliferation assay, EML4-ALK wt (variant 1); assay type: cell-based; conditions: 72 hours, CellTiter-Glo
T6 construct: echinoderm microtubule-associated protein-like 4 (EML4) gene and the ALK tyrosine kinase domain; host or cells: Ba/F3 (RIKEN), retroviral pMSCV-puro; the other entry of the earlier key: EML4 (Q9HC35, Echinoderm microtubule-associated protein-like 4)
Text: as §1, §2, §3, §4

Ba/F3 cells TPM3-TRKA = target: T7, Ba/F3 cells TPM3-TRKA (Homo sapiens, UniProt P04629); experiment: Ba/F3 cell proliferation assay, TPM3-TRKA; assay type: cell-based; conditions: 72 hours, CellTiter-Glo, read-out: TPM3-NTRK1-wt IC50
T7 construct: host or cells: Ba/F3 (RIKEN), retroviral pMSCV-puro; the other entry of the earlier key: TPM3 (P06753, Tropomyosin alpha-3 chain)
Text: as §1, §2, §3, §4

ALK L1196M/G1202R = target: T8, ALK L1196M/G1202R (Homo sapiens, UniProt Q9UM73, G1202R/L1196M); experiment: Biochemical kinase assay, ALK L1196M/G1202R kinase domain; conditions: apparent inhibitory constant, Morrison equation; ATP 2 mM in substrate solution; read-out: ALK-L1196M-G1202R Ki^app
T8 construct: purchased SignalChem A19-12NG
Experimental: as §5

[5] = target: T9, Ba/F3 cells CD74-ROS1 G2032R (Homo sapiens, UniProt P08922, G2032R); experiment: Ba/F3 cell proliferation assay, CD74-ROS1 G2032R; assay type: cell-based; conditions: 72 hours, CellTiter-Glo
T9 construct: fusion of the C-terminus of ROS1 with the N-terminus of various partner proteins; host or cells: Ba/F3 (RIKEN), retroviral pMSCV-puro; the other entry of the earlier key: CD74 (P04233, HLA class II histocompatibility antigen gamma chain)
Experimental: as §6, §2, §3, §4

T6 sequence (Q9UM73 with tags, fused parts or gaps): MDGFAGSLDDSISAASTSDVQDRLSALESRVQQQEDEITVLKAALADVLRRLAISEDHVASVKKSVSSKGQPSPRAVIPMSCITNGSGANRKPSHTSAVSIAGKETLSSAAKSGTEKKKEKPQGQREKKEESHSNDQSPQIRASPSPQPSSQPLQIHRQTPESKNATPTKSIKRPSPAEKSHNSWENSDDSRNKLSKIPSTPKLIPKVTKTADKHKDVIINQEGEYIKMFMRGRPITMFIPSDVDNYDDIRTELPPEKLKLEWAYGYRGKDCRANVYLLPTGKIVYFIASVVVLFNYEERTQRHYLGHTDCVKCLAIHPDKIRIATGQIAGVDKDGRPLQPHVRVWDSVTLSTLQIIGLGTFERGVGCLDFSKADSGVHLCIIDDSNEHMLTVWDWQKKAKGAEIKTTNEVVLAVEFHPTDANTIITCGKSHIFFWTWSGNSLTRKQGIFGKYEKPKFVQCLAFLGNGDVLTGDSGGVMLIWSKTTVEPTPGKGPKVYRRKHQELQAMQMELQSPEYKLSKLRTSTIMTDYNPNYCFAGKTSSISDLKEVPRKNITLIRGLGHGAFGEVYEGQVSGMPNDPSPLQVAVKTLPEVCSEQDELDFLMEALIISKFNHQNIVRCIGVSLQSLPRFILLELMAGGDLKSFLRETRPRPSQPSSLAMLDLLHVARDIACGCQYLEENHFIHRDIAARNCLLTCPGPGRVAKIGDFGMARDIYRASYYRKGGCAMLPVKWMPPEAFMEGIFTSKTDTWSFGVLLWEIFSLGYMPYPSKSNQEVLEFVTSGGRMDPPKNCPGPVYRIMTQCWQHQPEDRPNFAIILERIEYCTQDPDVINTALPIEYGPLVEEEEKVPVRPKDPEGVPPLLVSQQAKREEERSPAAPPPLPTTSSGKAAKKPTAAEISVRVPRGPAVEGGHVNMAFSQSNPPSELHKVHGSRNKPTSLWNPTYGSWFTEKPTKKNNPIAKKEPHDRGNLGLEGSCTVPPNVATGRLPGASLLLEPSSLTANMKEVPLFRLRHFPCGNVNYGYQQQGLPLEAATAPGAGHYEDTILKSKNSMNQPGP
T9 sequence (P08922 1883-2347 G2032R limits assumed): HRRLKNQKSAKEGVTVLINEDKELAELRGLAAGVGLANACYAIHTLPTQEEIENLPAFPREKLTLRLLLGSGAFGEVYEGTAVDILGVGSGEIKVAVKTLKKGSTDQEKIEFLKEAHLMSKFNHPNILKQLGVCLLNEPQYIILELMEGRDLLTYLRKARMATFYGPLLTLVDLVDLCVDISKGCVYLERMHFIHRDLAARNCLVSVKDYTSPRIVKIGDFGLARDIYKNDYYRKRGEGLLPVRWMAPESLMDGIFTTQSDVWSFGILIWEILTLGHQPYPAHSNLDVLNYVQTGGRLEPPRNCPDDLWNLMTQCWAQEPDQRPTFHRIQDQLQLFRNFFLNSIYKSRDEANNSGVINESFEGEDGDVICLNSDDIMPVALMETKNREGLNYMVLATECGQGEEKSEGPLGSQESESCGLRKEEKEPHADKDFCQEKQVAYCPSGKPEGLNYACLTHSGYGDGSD
T7 sequence (P04629 510-796 limits assumed): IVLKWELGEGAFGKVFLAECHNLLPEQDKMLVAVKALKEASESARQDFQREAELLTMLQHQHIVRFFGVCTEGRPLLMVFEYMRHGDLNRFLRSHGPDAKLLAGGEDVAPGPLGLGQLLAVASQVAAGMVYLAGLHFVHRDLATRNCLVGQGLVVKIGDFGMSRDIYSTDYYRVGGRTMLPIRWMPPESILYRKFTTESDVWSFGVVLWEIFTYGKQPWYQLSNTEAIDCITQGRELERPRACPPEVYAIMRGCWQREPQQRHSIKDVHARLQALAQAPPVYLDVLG
T5 sequence (P08922 1883-2347 limits assumed): as the sequence (P08922 1883-2347 G2032R limits assumed) above, with R150G counted along it
T2 sequence (Q9UM73 with tags, fused parts or gaps L1196M/G1202R): as the sequence (Q9UM73 with tags, fused parts or gaps) above, with L635M, G641R counted along it
T8 sequence (Q9UM73 1116-1392 L1196M/G1202R limits assumed): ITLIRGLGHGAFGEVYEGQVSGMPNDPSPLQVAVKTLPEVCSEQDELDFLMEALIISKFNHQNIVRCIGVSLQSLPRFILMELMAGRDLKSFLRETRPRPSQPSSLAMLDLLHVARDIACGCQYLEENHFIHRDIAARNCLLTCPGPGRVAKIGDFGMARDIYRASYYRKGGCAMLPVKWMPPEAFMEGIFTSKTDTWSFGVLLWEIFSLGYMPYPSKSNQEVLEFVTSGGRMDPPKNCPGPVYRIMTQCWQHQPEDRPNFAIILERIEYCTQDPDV
T1 sequence (P08922 1945-2222 G2032R limits assumed): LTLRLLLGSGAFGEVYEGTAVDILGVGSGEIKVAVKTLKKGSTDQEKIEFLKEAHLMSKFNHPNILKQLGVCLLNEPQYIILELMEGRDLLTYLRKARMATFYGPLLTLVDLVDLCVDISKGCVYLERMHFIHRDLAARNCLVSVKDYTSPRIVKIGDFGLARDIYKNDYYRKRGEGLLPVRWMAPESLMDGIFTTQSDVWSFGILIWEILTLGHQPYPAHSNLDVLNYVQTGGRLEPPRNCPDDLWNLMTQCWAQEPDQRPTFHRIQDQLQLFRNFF
T4 sequence (Q9UM73 1116-1392 limits assumed): as the sequence (Q9UM73 1116-1392 L1196M/G1202R limits assumed) above, with M81L, R87G counted along it
T3 sequence (P04629 510-781 limits assumed): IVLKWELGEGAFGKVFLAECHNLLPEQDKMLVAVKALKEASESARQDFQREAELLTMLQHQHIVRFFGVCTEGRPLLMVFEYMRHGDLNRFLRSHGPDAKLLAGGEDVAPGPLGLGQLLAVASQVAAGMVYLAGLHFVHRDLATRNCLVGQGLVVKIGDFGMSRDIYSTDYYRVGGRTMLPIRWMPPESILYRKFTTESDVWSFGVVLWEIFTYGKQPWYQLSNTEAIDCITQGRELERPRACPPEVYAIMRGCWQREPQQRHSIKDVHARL

| SMILES | Ki (ROS1-G2032R) [nM] | IC50 [1] [nM] | Ki (TRKA-wt) [nM] | TPM3-NTRK1-wt/CD74-ROS1-G2032R selectivity ratio [2] | TPM3-NTRK1-wt/CD74-ROS1-wt selectivity ratio [2] | TPM3-NTRK1-wt/EML4-ALK-L1196M-G1202R selectivity ratio [2] | TPM3-NTRK1-wt/EML4-ALK-wt selectivity ratio [2] | Ki (ALK-wt) [nM] | IC50 [3] [nM] | IC50 [4] [nM] | IC50 (Ba/F3 cells TPM3-TRKA) [nM] | Ki (ALK L1196M/G1202R) [nM] | IC50 [5] [nM] |
| --- | --- | --- | --- | --- | --- | --- | --- | --- | --- | --- | --- | --- | --- |
| CCn1ncc2c1-c1cnc(N)c(c1)O[C@H](C)c1cc(F)ccc1-c1cc(OC)nn1C2 [Example 89, (19R)-3-ethyl-16-fluoro-10-methoxy-19-methyl-20-oxa-3,4,8,9,23-pentaazapentacyclo[19.3.1.0^2,^6.0^8,^12.0^13,^18]pentacosa 1(24),2(6),4,9,11,13,15,17,21(25),22-decaen-22-amine] | < 50 | 50 to 500 | 50 to 500 | A (bin A for very high selectivity, ratio >30-fold) | A (bin A for very high selectivity, ratio >30-fold) | D (bin D for low selectivity, ratio <1) | B (bin B for high selectivity, ratio >10-fold) | < 50 | 0.1 to 50 | 0.1 to 50 | 50 to 500 | < 50 | 0.1 to 50 |
| Cc1nc2c(o1)-c1ccc(F)cc1[C@@H](C)Oc1cc(cnc1N)-c1c(c(C)nn1CC1CC1)C2 [Example 78, (19R)-3-(cyclopropylmethyl)-16-fluoro-5,10,19-trimethyl-11,20-dioxa-3 ,4,9,23-tetraazapentacyclo[19.3.1.0^2,^6.0^8,^12.0^13,^18]pentacosa-1(24),2(6),4,8(12),9,13,15,17,21(25),22-decaen-22-amine] |  | 50 to 500 |  | A (bin A for very high selectivity, ratio >30-fold) | A (bin A for very high selectivity, ratio >30-fold) | A (bin A for very high selectivity, ratio >30-fold) | A (bin A for very high selectivity, ratio >30-fold) |  | 0.1 to 50 | 0.1 to 50 | > 500 |  | 0.1 to 50 |
| C[C@H]1Oc2cc(cnc2N)-c2c(cnn2CC2CC2)Cc2nn(C(F)F)nc2-c2ccc(F)cc21 [Example 91, (19R)-3-(cyclopropylmethyl)-10-(difluoromethyl)-16-fluoro-19-methyl-20-oxa-3,4,9,10,11,23-hexaazapentacyclo[19,3.1.0^2,^6.0^8,^12.0^13,^18]pentacosa-1(24),2(6),4,8,11,13,15,17,21(25),22-decaen-22-amine] |  | 0.1 to 50 |  | A (bin A for very high selectivity, ratio >30-fold) | A (bin A for very high selectivity, ratio >30-fold) | B (bin B for high selectivity, ratio >10-fold) | A (bin A for very high selectivity, ratio >30-fold) |  | 0.1 to 50 | 0.1 to 50 | 50 to 500 |  | 0.1 to 50 |
